# Measured values: PubChem BioAssay AID1963970 (Molecular Pharmacology Branch, DTP, NCI, 2024)
# pIC50: −log10 of the molar value.
# Tested on: 931267-113-T-J1-PDC multicell spheroid viability
# Test: Anticancer human tumor 931267-113-T-J1-PDC patient-derived colon adenocarcinoma cell line growth inhibition [PI3K]
# Details: for pIC50: curve of first compound; for viability, T/C: stronger effect = lower value
# Method in brief: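 Stroma-containing spheroids: tumor line, pooled-donor HUVEC, hMSC. Treatments: targeted agents with PI3K inhibitors. Dosing: clinically relevant, half-log spacing, 10 microM ceiling without known Cmax. Read-out: cell viability.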
# [1] = second compound 0.00316 µM, first compound 0.0316 µM
# [2] = second compound 0.00316 µM, first compound 0.1 µM
# [3] = second compound 0.00316 µM, first compound 0.316 µM
# [4] = second compound 0.00316 µM, first compound 1 µM
# [5] = second compound 0.00316 µM, first compound 3.16 µM
# [6] = second compound 0.00316 µM, first compound 10 µM
# [7] = second compound 0.01 µM, first compound 0.0316 µM
# [8] = second compound 0.01 µM, first compound 0.1 µM
# [9] = second compound 0.01 µM, first compound 0.316 µM
# [10] = second compound 0.01 µM, first compound 1 µM
# [11] = second compound 0.01 µM, first compound 3.16 µM
# [12] = second compound 0.01 µM, first compound 10 µM
# [13] = second compound 0.0316 µM, first compound 0.0316 µM
# [14] = second compound 0.0316 µM, first compound 0.1 µM
# [15] = second compound 0.0316 µM, first compound 0.316 µM
# [16] = second compound 0.0316 µM, first compound 1 µM
# [17] = second compound 0.0316 µM, first compound 3.16 µM
# [18] = second compound 0.0316 µM, first compound 10 µM
# [19] = second compound 0.1 µM, first compound 0.0316 µM
# [20] = second compound 0.1 µM, first compound 0.1 µM
# [21] = second compound 0.1 µM, first compound 0.316 µM
# [22] = second compound 0.1 µM, first compound 1 µM
# [23] = second compound 0.1 µM, first compound 3.16 µM
# [24] = second compound 0.1 µM, first compound 10 µM
# [25] = second compound 0.316 µM, first compound 0.0316 µM
# [26] = second compound 0.316 µM, first compound 0.1 µM
# [27] = second compound 0.316 µM, first compound 0.316 µM
# [28] = second compound 0.316 µM, first compound 1 µM
# [29] = second compound 0.316 µM, first compound 3.16 µM
# [30] = second compound 0.316 µM, first compound 10 µM
# [31] = second compound 1 µM, first compound 0.0316 µM
# [32] = second compound 1 µM, first compound 0.1 µM
# [33] = second compound 1 µM, first compound 0.316 µM
# [34] = second compound 1 µM, first compound 1 µM
# [35] = second compound 1 µM, first compound 3.16 µM
# [36] = second compound 1 µM, first compound 10 µM
# 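Also: viability read 7 days after compound addition.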
structure (smiles),measurement,setting,value
C#Cc1c(F)ccc2cc(O)cc(-c3ncc4c(N5CC6CCC(C5)N6)nc(OCC56CCCN5CC(F)C6)nc4c3F)c12 (stereo not given) + CC(Nc1ccc2c(c1)OCCn1cc(N3C(=O)OCC3C(F)F)nc1-2)C(N)=O,pIC50,second compound 0.00316 µM,6.27
same,pIC50,second compound 0.01 µM,6.38
same,pIC50,second compound 0.0316 µM,6.44
same,pIC50,second compound 0.1 µM,6.66
same,pIC50,second compound 0.316 µM,6.75
same,pIC50,second compound 1 µM,7.25
same,"viability, T/C",[1],76.7%
same,"viability, T/C",[2],76.6%
same,"viability, T/C",[3],49%
same,"viability, T/C",[4],45.8%
same,"viability, T/C",[5],33.9%
same,"viability, T/C",[6],26%
same,"viability, T/C",[7],79%
same,"viability, T/C",[8],65.4%
same,"viability, T/C",[9],52.9%
same,"viability, T/C",[10],41.8%
same,"viability, T/C",[11],31.3%
same,"viability, T/C",[12],24.8%
same,"viability, T/C",[13],83.5%
same,"viability, T/C",[14],65.3%
same,"viability, T/C",[15],53.4%
same,"viability, T/C",[16],36.6%
same,"viability, T/C",[17],29.1%
same,"viability, T/C",[18],18.8%
same,"viability, T/C",[19],82.4%
same,"viability, T/C",[20],63.3%
same,"viability, T/C",[21],43.7%
same,"viability, T/C",[22],29.4%
same,"viability, T/C",[23],22.9%
same,"viability, T/C",[24],17%
same,"viability, T/C",[25],72.3%
same,"viability, T/C",[26],56.4%
same,"viability, T/C",[27],45%
same,"viability, T/C",[28],25.1%
same,"viability, T/C",[29],19.8%
same,"viability, T/C",[30],13.3%
same,"viability, T/C",[31],57.5%
same,"viability, T/C",[32],43.9%
same,"viability, T/C",[33],26%
same,"viability, T/C",[34],23.6%
same,"viability, T/C",[35],14.7%
same,"viability, T/C",[36],10.8%
C=CC(=O)N1CCN(c2nc(=O)n(-c3c(C)ccnc3C(C)C)c3nc(-c4c(O)cccc4F)c(F)cc23)C(C)C1 (stereo not given) + CC(Nc1ccc2c(c1)OCCn1cc(N3C(=O)OCC3C(F)F)nc1-2)C(N)=O,pIC50,second compound 0.00316 µM,< 5.00
same,pIC50,second compound 0.01 µM,< 5.00
same,pIC50,second compound 0.0316 µM,< 5.00
same,pIC50,second compound 0.1 µM,< 5.00
same,pIC50,second compound 0.316 µM,< 5.00
same,pIC50,second compound 1 µM,< 5.00
same,"viability, T/C",[1],108%
same,"viability, T/C",[2],106%
same,"viability, T/C",[3],100%
same,"viability, T/C",[4],114%
same,"viability, T/C",[5],115%
same,"viability, T/C",[6],107%
same,"viability, T/C",[7],94.8%
same,"viability, T/C",[8],98%
same,"viability, T/C",[9],117%
same,"viability, T/C",[10],118%
same,"viability, T/C",[11],110%
same,"viability, T/C",[12],106%
same,"viability, T/C",[13],122%
same,"viability, T/C",[14],105%
same,"viability, T/C",[15],90.4%
same,"viability, T/C",[16],109%
same,"viability, T/C",[17],114%
same,"viability, T/C",[18],106%
same,"viability, T/C",[19],102%
same,"viability, T/C",[20],100%
same,"viability, T/C",[21],86.7%
same,"viability, T/C",[22],102%
same,"viability, T/C",[23],98%
same,"viability, T/C",[24],97%
same,"viability, T/C",[25],91.9%
same,"viability, T/C",[26],87.1%
same,"viability, T/C",[27],99.8%
same,"viability, T/C",[28],88.8%
same,"viability, T/C",[29],90.4%
same,"viability, T/C",[30],72.2%
same,"viability, T/C",[31],92.9%
same,"viability, T/C",[32],74%
same,"viability, T/C",[33],79%
same,"viability, T/C",[34],80.7%
same,"viability, T/C",[35],83.8%
same,"viability, T/C",[36],71.4%
CC(Cn1ccc(-c2ccc(C#N)c(Cl)c2)n1)NC(=O)c1cc(C(C)O)[nH]n1 (stereo not given) + CC(Nc1ccc2c(c1)OCCn1cc(N3C(=O)OCC3C(F)F)nc1-2)C(N)=O,pIC50,second compound 0.00316 µM,< 5.00
same,pIC50,second compound 0.01 µM,< 5.00
same,pIC50,second compound 0.0316 µM,< 5.00
same,pIC50,second compound 0.1 µM,< 5.00
same,pIC50,second compound 0.316 µM,< 5.00
same,pIC50,second compound 1 µM,< 5.00
same,"viability, T/C",[1],88.4%
same,"viability, T/C",[2],101%
same,"viability, T/C",[3],98.5%
same,"viability, T/C",[4],110%
same,"viability, T/C",[5],111%
same,"viability, T/C",[6],101%
same,"viability, T/C",[7],102%
same,"viability, T/C",[8],103%
same,"viability, T/C",[9],106%
same,"viability, T/C",[10],115%
same,"viability, T/C",[11],113%
same,"viability, T/C",[12],110%
same,"viability, T/C",[13],107%
same,"viability, T/C",[14],106%
same,"viability, T/C",[15],101%
same,"viability, T/C",[16],89.8%
same,"viability, T/C",[17],112%
same,"viability, T/C",[18],91.5%
same,"viability, T/C",[19],98.5%
same,"viability, T/C",[20],98.8%
same,"viability, T/C",[21],101%
same,"viability, T/C",[22],94.8%
same,"viability, T/C",[23],103%
same,"viability, T/C",[24],79.8%
same,"viability, T/C",[25],92.4%
same,"viability, T/C",[26],90.5%
same,"viability, T/C",[27],86.8%
same,"viability, T/C",[28],80.2%
same,"viability, T/C",[29],90.4%
same,"viability, T/C",[30],72.8%
same,"viability, T/C",[31],76.4%
same,"viability, T/C",[32],76.8%
same,"viability, T/C",[33],74.2%
same,"viability, T/C",[34],74.8%
same,"viability, T/C",[35],76.1%
same,"viability, T/C",[36],59.2%
Cn1ncc(Cl)c1-c1cc(C(=O)NC(CN)Cc2cccc(F)c2)sc1Cl (stereo not given) + CC(Nc1ccc2c(c1)OCCn1cc(N3C(=O)OCC3C(F)F)nc1-2)C(N)=O,pIC50,second compound 0.00316 µM,5.29
same,pIC50,second compound 0.01 µM,5.28
same,pIC50,second compound 0.0316 µM,5.30
same,pIC50,second compound 0.1 µM,5.41
same,pIC50,second compound 0.316 µM,5.39
same,pIC50,second compound 1 µM,5.45
same,"viability, T/C",[1],94.7%
same,"viability, T/C",[2],102%
same,"viability, T/C",[3],85.5%
same,"viability, T/C",[4],88.3%
same,"viability, T/C",[5],71.1%
same,"viability, T/C",[6],22.8%
same,"viability, T/C",[7],98.3%
same,"viability, T/C",[8],90.7%
same,"viability, T/C",[9],91%
same,"viability, T/C",[10],79.2%
same,"viability, T/C",[11],70.9%
same,"viability, T/C",[12],27.6%
same,"viability, T/C",[13],103%
same,"viability, T/C",[14],89.2%
same,"viability, T/C",[15],94.8%
same,"viability, T/C",[16],86.3%
same,"viability, T/C",[17],66.1%
same,"viability, T/C",[18],25.9%
same,"viability, T/C",[19],110%
same,"viability, T/C",[20],92.6%
same,"viability, T/C",[21],92.5%
same,"viability, T/C",[22],75.1%
same,"viability, T/C",[23],61.1%
same,"viability, T/C",[24],20.3%
same,"viability, T/C",[25],80.8%
same,"viability, T/C",[26],94.4%
same,"viability, T/C",[27],76.4%
same,"viability, T/C",[28],73.2%
same,"viability, T/C",[29],60.1%
same,"viability, T/C",[30],20.9%
same,"viability, T/C",[31],82%
same,"viability, T/C",[32],70.7%
same,"viability, T/C",[33],80.7%
same,"viability, T/C",[34],63.8%
same,"viability, T/C",[35],54.7%
same,"viability, T/C",[36],21.4%
Cn1nccc1Nc1nccc(-c2ccn(C(CO)c3ccc(Cl)c(F)c3)c(=O)c2)n1 (stereo not given) + CC(Nc1ccc2c(c1)OCCn1cc(N3C(=O)OCC3C(F)F)nc1-2)C(N)=O,pIC50,second compound 0.00316 µM,5.07
same,pIC50,second compound 0.01 µM,5.44
same,pIC50,second compound 0.0316 µM,5.38
same,pIC50,second compound 0.1 µM,5.54
same,pIC50,second compound 0.316 µM,5.76
same,pIC50,second compound 1 µM,5.96
same,"viability, T/C",[1],96.7%
same,"viability, T/C",[2],98.6%
same,"viability, T/C",[3],88.6%
same,"viability, T/C",[4],81.2%
same,"viability, T/C",[5],64.5%
same,"viability, T/C",[6],47.4%
same,"viability, T/C",[7],99%
same,"viability, T/C",[8],92.4%
same,"viability, T/C",[9],97.2%
same,"viability, T/C",[10],79.9%
same,"viability, T/C",[11],52.3%
same,"viability, T/C",[12],37.2%
same,"viability, T/C",[13],99.5%
same,"viability, T/C",[14],91.5%
same,"viability, T/C",[15],82.6%
same,"viability, T/C",[16],74.3%
same,"viability, T/C",[17],54.4%
same,"viability, T/C",[18],33.1%
same,"viability, T/C",[19],102%
same,"viability, T/C",[20],86.1%
same,"viability, T/C",[21],86.1%
same,"viability, T/C",[22],69.8%
same,"viability, T/C",[23],46.5%
same,"viability, T/C",[24],25.9%
same,"viability, T/C",[25],91.7%
same,"viability, T/C",[26],76.2%
same,"viability, T/C",[27],73%
same,"viability, T/C",[28],61.8%
same,"viability, T/C",[29],38.6%
same,"viability, T/C",[30],18%
same,"viability, T/C",[31],72.8%
same,"viability, T/C",[32],76.5%
same,"viability, T/C",[33],68.8%
same,"viability, T/C",[34],51%
same,"viability, T/C",[35],29.2%
same,"viability, T/C",[36],17.7%
